Reference: ChEMBL document CHEMBL3638529, “Spiro-oxindole MDM2 antagonists” (2015)

Target: E3 ubiquitin-protein ligase Mdm2 (Homo sapiens, UniProt Q00987)
Assay: Fluorescence-Polarization Binding Assay: The binding affinity of the MDM2 inhibitors was determined using an optimized, sensitive and quantitative fluorescence polarization-based (FP-based) binding assay using a recombinant human His-tagged MDM2 protein (residues 1-118) and a fluorescently tagged p53-based peptide.The design of the fluorescence probe was based upon a previously reported …
Description: The assay was performed in the buffer: 100 mM potassium phosphate, pH 7.5; 100 ug/mL bovine gamma globulin; 0.02% sodium azide, 0.01% Triton X-100).

Chain of E3 ubiquitin-protein ligase Mdm2 (Q00987 whole entry, the tested form may be a part): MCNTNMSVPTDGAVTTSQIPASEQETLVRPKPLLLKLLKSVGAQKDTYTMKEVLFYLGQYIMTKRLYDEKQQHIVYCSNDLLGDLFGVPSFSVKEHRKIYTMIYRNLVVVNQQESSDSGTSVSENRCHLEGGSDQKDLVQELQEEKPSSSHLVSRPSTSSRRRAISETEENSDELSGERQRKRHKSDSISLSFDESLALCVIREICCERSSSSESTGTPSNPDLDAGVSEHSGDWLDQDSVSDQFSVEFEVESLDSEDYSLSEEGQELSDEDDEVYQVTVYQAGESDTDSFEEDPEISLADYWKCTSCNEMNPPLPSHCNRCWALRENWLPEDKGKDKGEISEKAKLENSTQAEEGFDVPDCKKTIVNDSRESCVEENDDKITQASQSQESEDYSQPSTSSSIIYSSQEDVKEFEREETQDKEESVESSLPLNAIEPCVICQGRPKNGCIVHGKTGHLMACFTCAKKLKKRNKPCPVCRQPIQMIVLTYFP

| IC50 | SMILES |
| --- | --- |
| < 1000 nM | CC(C)(C)C[C@H]1N[C@@H](C(=O)NCC[C@H]2CC[C@H](N)C2)[C@H](c2cccc(Cl)c2F)[C@@]12C(=O)Nc1cc(Cl)c(F)cc12 |
| < 1000 nM | CC(C)(C)C[C@H]1N[C@@H](C(=O)NCC[C@H]2CC[C@H](NS(C)(=O)=O)C2)[C@H](c2cccc(Cl)c2F)[C@@]12C(=O)Nc1cc(Cl)c(F)cc12 |
| < 1000 nM | CC(C)(C)C[C@H]1N[C@@H](C(=O)NCCCNS(C)(=O)=O)[C@H](c2cccc(Cl)c2F)[C@@]12C(=O)Nc1cc(Cl)c(F)cc12 |
| < 1000 nM | CC(C)(C)C[C@H]1N[C@@H](C(=O)NCCNS(C)(=O)=O)[C@H](c2cccc(Cl)c2F)[C@@]12C(=O)Nc1cc(Cl)c(F)cc12 |
